# Assay results as given in patent publication US9573911B2, “Diphosphate mimetics and uses thereof” (President and Fellows of Harvard College, priority 2011, dated 2017).
# What was measured:
# Test in all cases: Kinase profiling, Invitrogen Z'-LYTE
# Type in all cases: biochemical
# Conditions in all cases: Table 2
# ABL1 = biological target: T1, ABL1 (Homo sapiens, UniProt P00519)
# T1 construct: purchased Invitrogen
# Method: (§1) Kinase profiling was conducted using Invitrogen Z'-LYTE screening protocol and assay conditions found at www.invitrogen.com. Compound (2) inhibited PLK1 completely at 5 μM.
# CDK5/p25 = biological target: T2, CDK5/p25 (Homo sapiens, UniProt Q00535)
# T2 construct: purchased Invitrogen
# Method: as §1
# EEF2K = biological target: T3, EEF2K (Homo sapiens, UniProt O00418)
# T3 construct: purchased Invitrogen
# Method: as §1
# FLT3 D835Y = biological target: T4, FLT3 D835Y (Homo sapiens, UniProt P36888, D835Y)
# T4 construct: purchased Invitrogen
# T4 sequence (P36888 27-993 D835Y): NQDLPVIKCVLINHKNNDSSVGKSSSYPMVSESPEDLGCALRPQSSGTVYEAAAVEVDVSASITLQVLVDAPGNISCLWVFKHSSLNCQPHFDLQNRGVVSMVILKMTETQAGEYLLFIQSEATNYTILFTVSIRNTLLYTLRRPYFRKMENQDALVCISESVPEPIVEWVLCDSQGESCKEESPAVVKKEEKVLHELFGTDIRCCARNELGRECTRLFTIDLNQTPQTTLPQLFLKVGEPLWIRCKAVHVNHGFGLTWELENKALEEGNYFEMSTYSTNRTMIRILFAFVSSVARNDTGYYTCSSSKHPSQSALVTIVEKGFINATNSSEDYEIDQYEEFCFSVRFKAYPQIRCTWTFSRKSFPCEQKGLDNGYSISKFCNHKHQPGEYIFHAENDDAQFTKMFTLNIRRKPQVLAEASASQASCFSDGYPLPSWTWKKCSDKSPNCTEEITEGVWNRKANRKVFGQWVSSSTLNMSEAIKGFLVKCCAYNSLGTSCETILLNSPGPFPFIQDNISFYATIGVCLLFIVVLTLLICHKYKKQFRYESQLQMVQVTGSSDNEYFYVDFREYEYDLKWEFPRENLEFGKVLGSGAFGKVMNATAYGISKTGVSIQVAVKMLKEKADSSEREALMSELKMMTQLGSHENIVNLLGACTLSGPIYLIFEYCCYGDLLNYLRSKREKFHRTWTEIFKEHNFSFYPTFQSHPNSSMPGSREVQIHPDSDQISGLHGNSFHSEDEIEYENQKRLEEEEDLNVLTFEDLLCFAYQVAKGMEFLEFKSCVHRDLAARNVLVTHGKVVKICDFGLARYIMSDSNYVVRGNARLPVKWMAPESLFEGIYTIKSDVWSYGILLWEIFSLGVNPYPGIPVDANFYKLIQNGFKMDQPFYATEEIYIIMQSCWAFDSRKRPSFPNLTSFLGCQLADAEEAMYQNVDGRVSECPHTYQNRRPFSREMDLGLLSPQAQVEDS
# Method: as §1
# MAPK12 (p38 gamma) = biological target: T5, MAPK12 (p38 gamma) (Homo sapiens, UniProt P53778)
# T5 construct: purchased Invitrogen
# T5 sequence (P53778 1-367): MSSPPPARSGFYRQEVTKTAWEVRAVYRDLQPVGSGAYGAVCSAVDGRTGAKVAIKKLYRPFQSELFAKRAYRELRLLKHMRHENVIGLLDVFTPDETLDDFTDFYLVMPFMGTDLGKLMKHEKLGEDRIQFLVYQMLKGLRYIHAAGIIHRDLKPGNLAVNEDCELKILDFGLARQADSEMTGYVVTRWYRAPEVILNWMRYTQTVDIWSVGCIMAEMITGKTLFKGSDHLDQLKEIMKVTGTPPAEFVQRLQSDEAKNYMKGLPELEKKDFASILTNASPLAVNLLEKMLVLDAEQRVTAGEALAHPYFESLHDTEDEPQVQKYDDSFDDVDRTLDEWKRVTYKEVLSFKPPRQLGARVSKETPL
# Method: as §1
# MARK2 = biological target: T6, MARK2 (Homo sapiens, UniProt Q7KZI7)
# T6 construct: purchased Invitrogen
# Method: as §1
# MET M1250T = biological target: T7, MET M1250T (Homo sapiens, UniProt P08581, M1250T)
# T7 construct: purchased Invitrogen
# Method: as §1
# RPS6KA2 (RSK3) = biological target: T8, RPS6KA2 (RSK3) (Homo sapiens, UniProt Q15349)
# T8 construct: purchased Invitrogen
# Method: as §1
# SGKL (SGK3) = biological target: T9, SGKL (SGK3) (Homo sapiens, UniProt Q96BR1)
# T9 construct: purchased Invitrogen
# T9 sequence (Q96BR1 1-496): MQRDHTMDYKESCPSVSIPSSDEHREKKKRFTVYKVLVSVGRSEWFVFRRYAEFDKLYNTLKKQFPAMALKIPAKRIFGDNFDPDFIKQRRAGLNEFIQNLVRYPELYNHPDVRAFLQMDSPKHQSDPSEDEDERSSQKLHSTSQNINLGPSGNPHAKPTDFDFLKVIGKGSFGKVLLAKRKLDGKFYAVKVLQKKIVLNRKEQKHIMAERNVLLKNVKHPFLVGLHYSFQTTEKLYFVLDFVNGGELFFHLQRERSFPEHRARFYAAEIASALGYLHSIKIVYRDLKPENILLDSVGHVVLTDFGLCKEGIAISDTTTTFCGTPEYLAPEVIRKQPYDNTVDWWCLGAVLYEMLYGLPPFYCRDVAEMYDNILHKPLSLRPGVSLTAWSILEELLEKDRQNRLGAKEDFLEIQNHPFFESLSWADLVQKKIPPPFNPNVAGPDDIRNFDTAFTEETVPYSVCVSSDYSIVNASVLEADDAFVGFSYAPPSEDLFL
# Method: as §1
# T7 sequence (P08581 25-1390 M1250T): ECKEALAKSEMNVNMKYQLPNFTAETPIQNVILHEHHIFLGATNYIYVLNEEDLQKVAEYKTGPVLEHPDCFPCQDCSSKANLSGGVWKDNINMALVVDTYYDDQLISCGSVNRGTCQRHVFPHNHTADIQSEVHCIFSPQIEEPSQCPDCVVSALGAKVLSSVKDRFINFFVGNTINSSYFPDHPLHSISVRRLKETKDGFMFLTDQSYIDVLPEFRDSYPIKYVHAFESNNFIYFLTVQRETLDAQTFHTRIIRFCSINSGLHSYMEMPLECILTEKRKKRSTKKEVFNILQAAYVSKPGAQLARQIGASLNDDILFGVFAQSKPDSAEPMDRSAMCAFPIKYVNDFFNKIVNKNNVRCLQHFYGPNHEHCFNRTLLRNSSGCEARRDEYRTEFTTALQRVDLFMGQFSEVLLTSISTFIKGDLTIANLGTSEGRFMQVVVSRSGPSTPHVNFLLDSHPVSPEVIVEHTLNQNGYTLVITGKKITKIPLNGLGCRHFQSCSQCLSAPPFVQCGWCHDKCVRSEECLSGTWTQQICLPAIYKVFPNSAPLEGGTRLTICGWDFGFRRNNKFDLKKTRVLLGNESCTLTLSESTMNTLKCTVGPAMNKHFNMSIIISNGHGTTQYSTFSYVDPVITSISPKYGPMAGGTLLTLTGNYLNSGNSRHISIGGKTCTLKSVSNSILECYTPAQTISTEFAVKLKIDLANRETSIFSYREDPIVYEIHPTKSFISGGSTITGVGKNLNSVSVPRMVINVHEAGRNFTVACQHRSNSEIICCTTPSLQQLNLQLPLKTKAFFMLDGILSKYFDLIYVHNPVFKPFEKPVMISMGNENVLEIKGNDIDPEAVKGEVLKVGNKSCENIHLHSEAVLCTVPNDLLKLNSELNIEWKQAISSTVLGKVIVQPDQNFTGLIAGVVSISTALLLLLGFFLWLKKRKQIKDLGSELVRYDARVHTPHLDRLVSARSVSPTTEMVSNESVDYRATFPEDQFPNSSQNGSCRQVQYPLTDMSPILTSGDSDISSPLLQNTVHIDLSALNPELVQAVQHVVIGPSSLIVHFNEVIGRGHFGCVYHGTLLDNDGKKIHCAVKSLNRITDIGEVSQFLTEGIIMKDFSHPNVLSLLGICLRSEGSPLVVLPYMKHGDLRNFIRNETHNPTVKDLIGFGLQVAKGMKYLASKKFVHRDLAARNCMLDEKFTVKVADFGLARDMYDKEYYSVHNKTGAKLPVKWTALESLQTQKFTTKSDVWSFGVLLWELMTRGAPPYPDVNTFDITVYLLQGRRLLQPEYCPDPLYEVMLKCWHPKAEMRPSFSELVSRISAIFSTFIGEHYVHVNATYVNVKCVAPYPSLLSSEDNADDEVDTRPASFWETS
# T1 sequence (P00519 whole entry): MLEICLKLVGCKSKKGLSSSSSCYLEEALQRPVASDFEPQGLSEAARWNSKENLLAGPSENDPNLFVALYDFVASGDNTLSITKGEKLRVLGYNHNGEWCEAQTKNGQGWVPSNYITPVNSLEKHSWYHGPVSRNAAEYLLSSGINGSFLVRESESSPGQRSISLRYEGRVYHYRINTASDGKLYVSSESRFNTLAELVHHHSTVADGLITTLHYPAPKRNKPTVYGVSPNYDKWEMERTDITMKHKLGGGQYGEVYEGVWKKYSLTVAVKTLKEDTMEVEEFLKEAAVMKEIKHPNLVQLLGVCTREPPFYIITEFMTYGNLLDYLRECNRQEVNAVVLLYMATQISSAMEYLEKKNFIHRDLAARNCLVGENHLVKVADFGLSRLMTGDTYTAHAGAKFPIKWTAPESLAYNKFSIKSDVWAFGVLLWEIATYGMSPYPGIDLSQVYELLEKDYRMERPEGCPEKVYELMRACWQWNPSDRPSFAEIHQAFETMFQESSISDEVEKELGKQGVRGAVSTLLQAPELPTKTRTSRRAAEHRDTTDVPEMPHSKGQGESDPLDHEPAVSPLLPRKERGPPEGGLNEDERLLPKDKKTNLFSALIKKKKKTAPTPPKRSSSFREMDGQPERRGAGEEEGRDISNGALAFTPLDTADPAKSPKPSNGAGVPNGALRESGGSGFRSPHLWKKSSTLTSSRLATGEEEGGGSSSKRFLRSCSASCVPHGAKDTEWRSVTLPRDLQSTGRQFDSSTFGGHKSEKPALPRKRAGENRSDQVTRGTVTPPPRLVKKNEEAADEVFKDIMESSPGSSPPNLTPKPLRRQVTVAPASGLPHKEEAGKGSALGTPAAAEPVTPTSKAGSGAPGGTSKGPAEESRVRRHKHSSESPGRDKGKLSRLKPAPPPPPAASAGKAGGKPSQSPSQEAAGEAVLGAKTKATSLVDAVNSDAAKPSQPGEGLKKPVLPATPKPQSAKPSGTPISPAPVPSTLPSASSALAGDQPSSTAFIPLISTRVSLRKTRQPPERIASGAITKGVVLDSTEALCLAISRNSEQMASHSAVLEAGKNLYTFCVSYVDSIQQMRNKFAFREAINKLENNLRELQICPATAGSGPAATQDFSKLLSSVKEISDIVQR
# T2 sequence (Q00535 whole entry): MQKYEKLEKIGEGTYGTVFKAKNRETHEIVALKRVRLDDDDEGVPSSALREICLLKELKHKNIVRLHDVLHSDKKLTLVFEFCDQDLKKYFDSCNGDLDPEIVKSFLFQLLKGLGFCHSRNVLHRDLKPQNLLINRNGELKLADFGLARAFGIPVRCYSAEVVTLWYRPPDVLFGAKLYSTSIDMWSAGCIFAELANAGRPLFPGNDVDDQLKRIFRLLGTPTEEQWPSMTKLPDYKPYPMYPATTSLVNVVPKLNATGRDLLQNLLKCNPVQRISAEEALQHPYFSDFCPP
# T2 sequence (Q15078 99-307 partner limits assumed): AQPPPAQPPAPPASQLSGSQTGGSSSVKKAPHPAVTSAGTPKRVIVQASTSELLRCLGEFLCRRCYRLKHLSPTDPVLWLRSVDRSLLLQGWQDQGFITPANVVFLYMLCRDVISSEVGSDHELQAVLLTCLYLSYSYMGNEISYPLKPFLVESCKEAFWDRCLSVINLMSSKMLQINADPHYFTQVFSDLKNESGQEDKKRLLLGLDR
# T8 sequence (Q15349 whole entry): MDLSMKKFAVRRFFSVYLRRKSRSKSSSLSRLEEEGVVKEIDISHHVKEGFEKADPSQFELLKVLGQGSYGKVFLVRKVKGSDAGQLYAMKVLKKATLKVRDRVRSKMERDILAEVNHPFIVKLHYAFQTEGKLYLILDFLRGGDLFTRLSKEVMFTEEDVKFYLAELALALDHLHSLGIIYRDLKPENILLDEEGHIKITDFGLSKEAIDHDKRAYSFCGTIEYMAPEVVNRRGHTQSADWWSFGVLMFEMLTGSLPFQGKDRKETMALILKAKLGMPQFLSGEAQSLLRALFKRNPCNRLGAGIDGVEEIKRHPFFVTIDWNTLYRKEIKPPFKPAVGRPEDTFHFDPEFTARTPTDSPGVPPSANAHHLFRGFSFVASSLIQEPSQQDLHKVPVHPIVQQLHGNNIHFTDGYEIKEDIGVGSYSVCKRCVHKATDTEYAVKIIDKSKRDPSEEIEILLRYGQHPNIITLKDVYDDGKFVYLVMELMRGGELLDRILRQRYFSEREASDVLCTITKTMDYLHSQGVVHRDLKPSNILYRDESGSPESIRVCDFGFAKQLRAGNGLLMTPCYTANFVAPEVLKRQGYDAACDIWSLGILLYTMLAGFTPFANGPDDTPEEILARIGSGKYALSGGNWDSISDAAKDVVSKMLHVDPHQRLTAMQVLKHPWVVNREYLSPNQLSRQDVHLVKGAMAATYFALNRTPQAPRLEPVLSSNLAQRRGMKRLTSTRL
# T6 sequence (Q7KZI7 whole entry): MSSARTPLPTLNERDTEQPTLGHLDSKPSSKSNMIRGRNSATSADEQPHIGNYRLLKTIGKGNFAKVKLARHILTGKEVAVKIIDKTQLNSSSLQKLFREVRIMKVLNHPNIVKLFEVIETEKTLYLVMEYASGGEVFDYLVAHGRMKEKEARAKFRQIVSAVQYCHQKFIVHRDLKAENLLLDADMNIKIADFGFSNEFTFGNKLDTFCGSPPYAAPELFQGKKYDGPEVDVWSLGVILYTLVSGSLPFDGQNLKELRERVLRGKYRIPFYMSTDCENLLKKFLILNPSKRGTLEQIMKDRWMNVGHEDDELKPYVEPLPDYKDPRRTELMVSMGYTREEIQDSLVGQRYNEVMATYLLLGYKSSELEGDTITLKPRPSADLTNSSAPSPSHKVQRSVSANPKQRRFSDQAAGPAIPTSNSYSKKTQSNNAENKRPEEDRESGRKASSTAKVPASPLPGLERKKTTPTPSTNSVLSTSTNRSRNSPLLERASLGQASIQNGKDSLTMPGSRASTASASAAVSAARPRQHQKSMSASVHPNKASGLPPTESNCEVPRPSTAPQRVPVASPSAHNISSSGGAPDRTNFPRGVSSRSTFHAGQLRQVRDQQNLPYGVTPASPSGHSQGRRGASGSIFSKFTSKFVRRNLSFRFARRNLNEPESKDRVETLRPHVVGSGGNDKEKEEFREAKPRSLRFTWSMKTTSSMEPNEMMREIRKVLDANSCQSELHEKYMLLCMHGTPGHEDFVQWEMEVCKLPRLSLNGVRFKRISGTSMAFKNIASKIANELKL
compound,measurement,setting,value
COc1ccc(OC(=O)n2c(=O)oc3cc(C(C)=O)ccc32)cc1 [Compound 2],% Inhibition Point 1,ABL1,−147%
same,% Inhibition Point 2,ABL1,−234%
same,% Inhibition mean,ABL1,−190%
same,% Inhibition Point 1,CDK5/p25,−322%
same,% Inhibition Point 2,CDK5/p25,−286%
same,% Inhibition mean,CDK5/p25,−304%
same,% Inhibition Point 1,EEF2K,−64%
same,% Inhibition Point 2,EEF2K,−61%
same,% Inhibition mean,EEF2K,−63%
same,% Inhibition Point 1,FLT3 D835Y,−41%
same,% Inhibition Point 2,FLT3 D835Y,−43%
same,% Inhibition mean,FLT3 D835Y,−42%
same,% Inhibition Point 1,MAPK12 (p38 gamma),−203%
same,% Inhibition Point 2,MAPK12 (p38 gamma),−203%
same,% Inhibition mean,MAPK12 (p38 gamma),−203%
same,% Inhibition Point 1,MARK2,−172%
same,% Inhibition Point 2,MARK2,−157%
same,% Inhibition mean,MARK2,−164%
same,% Inhibition Point 1,MET M1250T,−113%
same,% Inhibition Point 2,MET M1250T,−143%
same,% Inhibition mean,MET M1250T,−128%
same,% Inhibition Point 1,RPS6KA2 (RSK3),−266%
same,% Inhibition Point 2,RPS6KA2 (RSK3),−267%
same,% Inhibition mean,RPS6KA2 (RSK3),−267%
same,% Inhibition Point 1,SGKL (SGK3),−140%
same,% Inhibition Point 2,SGKL (SGK3),−150%
same,% Inhibition mean,SGKL (SGK3),−145%
